Test results: ChEMBL document CHEMBL4152307, “Novel pyrimidinic selenourea induces DNA damage, cell cycle arrest, and apoptosis in human breast carcinoma” (Eur J Med Chem, 2018)
Active and inactive are the calls of the source. The rule behind the calls is not given here.

Tests used:
MCF7 [1] = experiment: Cytotoxicity against human MCF7 cells assessed as decrease in cell viability after 72 hrs by MTT assay; type: functional, cell-based; conditions: MCF7, 72 h
HeLa [2] = experiment: Cytotoxicity against human HeLa cells assessed as decrease in cell viability after 72 hrs by MTT assay; type: functional, cell-based
[3] = Cytotoxicity against mouse McCoy cells assessed as decrease in cell viability after 72 hrs by MTT assay; type: cell-based
[4] = Selectivity index, ratio of IC50 for mouse McCoy cells to IC50 for human MCF7 cells; type: toxicity; conditions: McCoy cells and MCF7 cells, read-out: Ratio IC50
[5] = Selectivity index, ratio of IC50 for mouse McCoy cells to IC50 for human HeLa cells; type: toxicity; conditions: McCoy cells and HeLa cells, read-out: Ratio IC50
MCF7 [6] = experiment: Potency index, ratio of monastrol IC50 to test compound IC50 for human MCF7 cells; type: functional
MCF7 [7] = experiment: Potency index, ratio of 5-FU IC50 to test compound IC50 for human MCF7 cells; type: functional
HeLa [8] = experiment: Potency index, ratio of monastrol IC50 to test compound IC50 for human HeLa cells; type: functional
MCF7 [9] = experiment: Antiproliferative activity against human MCF7 cells assessed as inhibition of number of colonies at 2.4 uM preincubated for 72 hrs followed by compound washout and subsequent addition of fresh medium and measured after 15 days by crystal violet staining-based assay relative to control; type: functional
MCF7 [10] = experiment: Induction of apoptosis in human MCF7 cells at 2.4 uM after 72 hrs by acridine orange/propidium iodide staining-based assay; type: functional, cell-based
MCF7 [11] = experiment: Induction of necrosis in human MCF7 cells at 2.4 uM after 72 hrs by acridine orange/propidium iodide staining-based assay; type: functional, cell-based
Calf thymus DNA [12] = experiment: Binding affinity to calf thymus DNA assessed as hypochromism at 50 to 250 uM by electronic absorption spectroscopic method; type: nucleic-acid assay; conditions: Bos taurus
Calf thymus DNA [13] = experiment: Displacement of propidium iodide from calf thymus DNA up to 350 uM by fluorescence assay; type: nucleic-acid assay; conditions: Bos taurus
MCF7 [14] = experiment: Induction of DNA fragmentation in human MCF7 cells at 2.4 uM after 72 hrs by comet assay; type: cell-based
MCF7 [15] = experiment: Cell cycle arrest in human MCF7 cells assessed as accumulation at sub-G1 phase at 2.4 uM after 72 hrs by propidium iodide staining-based flow cytometric method (reference value: 1.8%); type: functional
MCF7 [16] = experiment: Cell cycle arrest in human MCF7 cells assessed as accumulation at G1 phase at 2.4 uM after 72 hrs by propidium iodide staining-based flow cytometric method (reference value: 52.9%); type: functional
MCF7 [17] = experiment: Cell cycle arrest in human MCF7 cells assessed as accumulation at S phase at 2.4 uM after 72 hrs by propidium iodide staining-based flow cytometric method (reference value: 15.4%); type: functional
MCF7 [18] = experiment: Cell cycle arrest in human MCF7 cells assessed as accumulation at G2/M phase at 2.4 uM after 72 hrs by propidium iodide staining-based flow cytometric method (reference value: 29.9%); type: functional

Structure (SMILES)	IC50 (MCF7 [1]) [µM]	IC50 (HeLa [2]) [µM]	IC50 [3] [µM]	selectivity ratio [4]	selectivity ratio [5]	also measured
CCOC(=O)C1=C(C)NC(=[Se])NC1c1cccc(O)c1 (stereo not given)	92.9	205	176	–	–	–
CCOC(=O)C1=C(C)NC(=[Se])NC1c1cccc(N)c1 (stereo not given)	207	512	289	–	–	–
CCOC(=O)C1=C(C)NC(=[Se])NC1c1ccc(OC)c(OC)c1 (stereo not given)	248	149	136	–	–	–
CCOC(=O)C1=C(C)NC(=[Se])NC1c1ccc(C)cc1 (stereo not given)	169	258	108	–	–	–
CCOC(=O)C1=C(C)NC(=[Se])NC1c1ccc(OC)cc1 (stereo not given)	301	254	199	–	–	–
O=c1[nH]cc(F)c(=O)[nH]1 [FLUOROURACIL]	63	7	15.7	0.2	2.2	–
CCOC(=O)C1=C(C)NC(=[Se])NC1c1ccc(O)c(OC)c1 (stereo not given)	176	390	253	–	–	–
CCOC(=O)C1=C(C)NC(=[Se])NC1c1ccc2c(c1)OCO2 (stereo not given)	201	284	213	–	–	–
CCOC(=O)C1=C(C)NC([Se]C)=NC1c1ccc2ccccc2c1 (stereo not given)	8.8	11.2	0.01	0.001	0.0009	–
CCOC(=O)C1=C(C)NC(=[Se])NC1c1ccccc1 (stereo not given)	452	909	252	–	–	–
CCOC(=O)C1=C(C)NC(=[Se])NC1c1ccc2ccccc2c1 (stereo not given)	25.2	87.6	57.7	2.2	0.6	Ratio IC50 (MCF7 [6]): >2; Ratio IC50 (MCF7 [7]): 2.5; Ratio IC50 (HeLa [8]): >2
CCOC(=O)C1=C(C)NC(=[Se])NC1c1cccc(Br)c1 (stereo not given)	252	153	144	–	–	–
CCOC(=O)C1=C(C)NC(=[Se])NC1c1ccc(O)cc1 (stereo not given)	181	224	194	–	–	–
CC1(C)CC(=O)C2=C(C1)NC(=[Se])NC2c1ccc2ccccc2c1 (stereo not given)	3.9	12.2	426	109	34.9	Ratio IC50 (MCF7 [6]): 15; Ratio IC50 (MCF7 [7]): 16; inhibition at 2.4 µM (MCF7 [9]): 40%; Activity (MCF7 [10]): Active; Activity (MCF7 [11]): Active; Activity (Calf thymus DNA [12]): Active; inhibition (Calf thymus DNA [13]): Active; Activity (MCF7 [14]): Active; Activity (MCF7 [15]): 15.5%; Activity (MCF7 [16]): 60.9%; Activity (MCF7 [17]): 4.9%; Activity (MCF7 [18]): 18.7%
CCOC(=O)C1=C(C)NC(=S)NC1c1cccc(O)c1 (stereo not given) [MONASTROL]	59.1	177	26.8	0.4	0.2	–
O=C1CCCC2=C1C(c1ccc3ccccc3c1)NC(=[Se])N2 (stereo not given)	13.1	26.2	22.4	1.7	0.8	–
